Measurements from US20030153571A1 (priority 2002, published 2003).
pKi: −log10 of the molar value.

Legend:
[1] = target: T1, NMDA receptor glycine site (Rattus norvegicus, UniProt P35439); test: Test A: Inhibition of binding of [3H]-MDL105,519 to brain membranes; details: inhibition of [3H]MDL105,519 binding
T1 construct: to brain membranes bearing the receptor; tissue Analytical Biological Services Inc; host or cells: rat brain membranes (cerebral cortex and hippocampus, male Sprague Dawley rats)
Text: Test A: Inhibition of binding of [^3H]-MDL105,519:
Binding of compounds to the NMDA receptor glycine site may be assessed by measuring the ability of test compounds to inhibit the binding of tritiated MDL105,519 to brain membranes bearing the receptor.
Briefly, fresh brain tissue including cerebral cortex and hippocampus from male Sprague Dawley rats was homogenized in 0.32 M sucrose and centrifuged at low speed to separate cellular membranes from other cellular components. The membranes were then washed 3 times using deionized water, followed by treatment with 0.04% Triton X-100. Finally, membranes were washed six times in 50 mM Tris citrate buffer, pH 7.4, and frozen at −80° C. until use.
[^3H]MDL105,519 (72 Ci/mmol) was purchased from Amersham. Cold MDL105,519 was purchased from Sigma/RBI. […] On the day of the experiment, brain membranes were thawed at room temperature and suspended in 50 mM tris acetate buffer, pH 7.4 (“TAB”). Seventy-five micro grams per milliliter protein (by using the BioRad dye) were used for competition binding. The experiments were carried out using 96-well plates. […] Non specific binding was determined by using 100 μM of unlabeled MDL105,519. […] After incubation, unbound [^3H]MDL105,519 was removed by filtration onto GF/B Unifilter plates using a Packard harvester. Filters were washed four times with ice cold TAB (total of 1.2 mL buffer). The plates were dried overnight at room temperature and bound radioactivity was measured on a Packard TopCount after the addition of 45 μL per well of the MICROSCINT O.
Human Brain Membranes: Human brain membranes were obtained from Analytical Biological Services Inc., and assays were performed as described for rat membranes.
Data analysis: Data was analyzed using a Microsoft Excel spreadsheet and GraphPad Prizm software and potency of compounds is expressed as the Ki (nM).

[2] = tested on: CCI rats (thermal hyperalgesia); test: Test C: Neuropathic pain model (Chronic Constriction Injury), thermal hyperalgesia paw-withdrawal test; assay type: in vivo, rat; details: oral, three times daily for 5 days
Text: Test C: Neuropathic pain model (Chronic Constriction Injury):
The anti-hyperalgesic properties of a compound may be tested with the Chronic Constriction Injury (“CCI”) model. The test is a model for neuropathic pain associated with nerve injuries that can arise directly from trauma and compression, or indirectly from a wide range of diseases such as infection, cancer, metabolic conditions, toxins, nutritional deficiencies, immunological dysfunction, and musculoskeletal changes. In the model a unilateral peripheral hyperalgesia is produced in rats by nerve ligation (G. J. Bennett, et al., Pain 33, 87-107 (1988)).
Procedurally, Sprague-Dawley rats (250-350 g) are anesthetized with sodium pentobarbital and the common sciatic nerve is exposed at the level of the mid thigh by blunt dissection through the biceps femoris. […] Thermal hyperalgesia is measured using a paw-withdrawal test (K. Hargreaves, et al., Pain 32, 77-88 (1988)). […] The latencies for the withdrawal reflex in both hind paws are recorded.
Injured paws with ligated nerves show shorter paw withdrawal latencies compared to the uninjured or sham operated paws. Responses to test compounds are evaluated at different times after oral administration to determine the onset and duration of compound effect. […] Paw withdrawal latencies are measured each day 10 min before and 2 or 3 hr. after the first daily dose. […]

[3] = brain membranes (rat and human membranes described; table does not say which)

| pKi [1, 3] | Compound | other results |
| --- | --- | --- |
| 6.75 | CC(c1cc2ccccc2s1)n1nc(O)c2[nH]c3cc(Cl)ccc3c(=O)c2c1=O (centres unmarked) [Ex. 21] |  |
| 5.28 | CC(C)C(c1ccncc1)n1nc(O)c2[nH]c3cc(Cl)ccc3c(=O)c2c1=O (racemic) [Ex. 8, (+/−)-7-Chloro-4-hydroxy-2-(propyl-(2-methyl-1-(4-pyridyl))-1,2,5,10-tetrahydropyridazino[4,5-b]quinoline-1,10-dione methanesulfonate] |  |
| 5.36 | CCCC(c1ccncc1)n1nc(O)c2[nH]c3cc(Cl)ccc3c(=O)c2c1=O (racemic) [Ex. 7, (+/−)-7-Chloro-4-hydroxy-2-(butyl-1-(4-pyridyl))-1,2,5,10-tetrahydropyridazino[4,5-b]quinoline-1,10-dione] |  |
|  | CCCC(c1ccccn1)n1nc(O)c2[nH]c3cc(Cl)ccc3c(=O)c2c1=O (racemic) [Ex. 6, (+/−)-7-Chloro-4-hydroxy-2-(butyl-1-(2-pyridyl))-1,2,5,10-tetrahydropyridazino[4,5-b]quinoline-1,10-dione methanesulfonate] | pKi ([1]; brain membranes): < 5.00 |
| 5.28 | CC(C)CC(c1ccncc1)n1[nH]c(=O)c2nc3cc(Cl)ccc3c(O)c2c1=O (racemic) [Ex. 12, (+/−)-7-Chloro-4-hydroxy-2-(3-methyl-1-(4-pyridyl)butyl)-1,2,5,10-tetrahydropyridazino[4,5-b]quinoline-1,10-dione] |  |
|  | CS(=O)(=O)O.O=c1c2ccc(Cl)cc2[nH]c2c(O)nn(CCc3ccncc3)c(=O)c12 [Ex. 2, (+/−)-7-Chloro-4-hydroxy-2-(4-pyridyleth-1-yl)-1,2,5,10-tetrahydropyridazino[4,5-b]quinoline-1,10-dione methanesulfonate] | melting point: 245 to 248 °C |
| 6.51 | COc1ccc(C(C)n2nc(O)c3[nH]c4cc(Cl)ccc4c(=O)c3c2=O)cn1 (racemic) [Ex. 14, (+/−)-7-Chloro-4-hydroxy-2-(1-(2-methoxypyrid-5-yl))ethyl-1,2,5,10-tetrahydropyridazino[4,5-b]quinoline-1,10-dione methanesulfonate] |  |
| 7.29 | CC(c1ccnc(Cl)c1)n1nc(O)c2[nH]c3cc(Cl)ccc3c(=O)c2c1=O (racemic) [Ex. 16, (+/−)-7-Chloro-1-hydroxy-2-(2-chloro(4-pyridyl)ethyl)-1,2,5,10-tetrahydropyridazino[4,5-b]quinoline-1,10-dione] |  |
| 6.25 | COc1cnccc1C(C)n1nc(O)c2[nH]c3cc(Cl)ccc3c(=O)c2c1=O (racemic) [Ex. 13, (+/−)7-Chloro-4-hydroxy-2-(1-(3-methoxypyrid-4-yl))ethyl-1,2,5,10-tetrahydropyridazino[4,5-b]quinoline-1,10-dione methanesulfonate] |  |
| 6.47 | CC(c1cnccn1)n1nc(O)c2[nH]c3cc(Cl)ccc3c(=O)c2c1=O (centres unmarked) [Ex. 23, 7-Chloro-4-hydroxy-2-(ethyl-1-(pyrazin-2-yl))-1,2,5,10-tetrahydropyridazino [4,5-b]quinoline-1,10-dione] |  |
| 6.16 | CC(c1ccc(C#N)s1)n1nc(O)c2[nH]c3cc(Cl)ccc3c(=O)c2c1=O (centres unmarked) [Ex. 22, 7-Chloro-4-hydroxy-2-(1-(5-cyanothien-2-yl)ethyl)-1,2,5,10-tetrahydropyridazino[4,5-b]quinoline-1,10-dione] |  |
| 5.74 | CCC(c1ccccn1)n1[nH]c(=O)c2nc3cc(Cl)ccc3c(O)c2c1=O (racemic) [Ex. 4, (+/−)-7-Chloro-4-hydroxy-2-(propyl-1-(2-pyridyl))-1,2,5,10-tetrahydropyridazino [4,5-b]quinoline-1,10-dione methanesulfonate] |  |
| 6.17 | O=c1c2ccc(Cl)cc2[nH]c2c(O)nn(CCc3cccnc3Cl)c(=O)c12 [Ex. 15, (+/−)-7-Chloro-4-hydroxy-2-(2-chloro-pyrid-3-yl)ethyl-1,2,5,10-tetrahydropyridazino[4,5-b]quinoline-1,10-dione] |  |

| Compound | pKi [1, 3] | other results |
| --- | --- | --- |
| CC(c1ccco1)n1nc(O)c2[nH]c3cc(Cl)ccc3c(=O)c2c1=O (racemic) | 6.82 |  |
| (+/−)-7-Chloro-4-hydroxy-2-(4-pyridylprop-1-yl)-1,2,5,10-tetrahydropyridazino[4,5-b]quinoline-1,10-dione sodium methanesulfonate [Ex. 3] | 5.71 | Test C %Inh. (percent decrease in hyperalgesia at the MED) ([2]; at the MED, compared to vehicle-treated animals): 10%; Test C MED (minimum effective dose) ([2]; dose giving statistically significant decrease in hyperalgesia): 30 mg/kg/day |
